Experiment [1] deals with primary culture of cortical neurons. Description: MTT neuronal survival evaluation test in in vitro model of ischemia/reperfusion (OGD). The settings on record: for neuronal protection (MTT): Example 6, FIG. 6, 100 nM, 4 h of OGD then 24 h of reperfusion. The format is cell-based, mouse. As for the experimental part: (§1) More specifically, the cells taken are grown in a Neurobasal™ medium (ref. 21103049 ThermoFisher Scientific) to which L-glutamine and B27 supplement 50X (ref. 17504044 ThermoFisher Scientific) have been added (step 2). The neurons from the primary culture are then isolated and purified. It should be noted that it is the culture conditions in themselves which make it possible to obtain a purified culture of neurons from the dissociation of the embryonic cortexes. Oxygen and glucose deprivation (OGD) is then carried out (step 3) on these neurons in order to mimic as closely as possible what happens in vivo during a stroke, that is to say a decrease in oxygen and glucose supply due to a decrease in blood perfusion for the cells. In order to carry out this oxygen and glucose deprivation mimicking ischemia, the neurons are placed, for 4 h, in an incubator of which the atmosphere has an oxygen content of approximately 1% and with the culture medium being replaced with a glucose-free medium (step 3). Since the ischemia model is an “ischemia/reperfusion” model, the neurons are then placed in a medium containing glucose under normoxic conditions for 24 h (reperfusion) (step 4) following the ischemia step. Neuron group A is a group of neurons having been treated with a solution of compound of formula (I) during the OGD and the reperfusion, that is to say that a molecule of table 1 is added to glucose-free medium as soon as the oxygen and glucose deprivation begins (step 3). […] The concentration of the other molecules of table 1 is 100 nmol·L^−1 in the glucose-free medium. Neuron group B is a group of neurons having been treated with a solution of DX243 during the reperfusion only (step 4), in order to be closer to what occurs clinically, namely the possible treatment only after several hours with a conventional treatment. The DX243 solution is added to the glucose-free medium as soon as the reperfusion begins (step 4). The DX243 concentration is between 1 nmol. L^−1 and 1 μmol·L^−1 in the glucose-free medium.
(§2) The negative control consists of a group of neurons undergoing OGD (step 3) followed by reperfusion (step 4) without DX243 being present. This group of neurons is called “Ctrl” in FIGS. 2 to 4. The normal control consists of a group of neurons from the primary culture placed under normoxic conditions for 28 h. The normal control is called “normox” in FIGS. 2 to 4. The positive control consists of a group of neurons from the primary culture having undergone OGD for 4 h (step 3) in the presence of roscovitine, which is a cell cycle inhibitor, leading to neuronal protection, followed by reperfusion for 24 h (step 4). The positive control is called “ROSCO” in FIGS. 2 to 4.
(§3) At the end of the reperfusion (step 4), 24 h after the OGD, the survival of the neurons is evaluated by means of three different tests: an immunocytochemical test 5, an MTT (3-(4,5-dimethylthiazol-2-yl)-2,5-diphenyltetrazolium bromide) test 6 and a test based on the cell membrane integrity via the use of trypan blue 7. The results are then compared to the results of the three control-group survival tests.
In order to confirm the results obtained with DX243, a test based on the metabolic activity of the neurons was carried out to evaluate neuronal survival in another way. This test is based on the use of the tetrazolium salt MTT (3-(4,5-dimethylthiazol-2-yl)-2,5-diphenyltetrazolium bromide). The tetrazolium is reduced, by the mitochondrial succinate dehydrogenase of the active live cells, into formazan, a purple-colored precipitate. The amount of precipitate formed is proportional to the amount of live cells but also to the metabolic activity of each cell. Thus, a simple assay of the optical density at 550 nm by spectroscopy makes it possible to determine the relative amount of live and metabolically active cells. […]

Experiment [2] has the same test system. The experiment is described as follows: Neuronal survival evaluation via trypan blue (cell membrane integrity) in in vitro model of ischemia/reperfusion (OGD). The settings on record: for overall conclusion: neuroprotective effect against cerebral ischemia: conclusion drawn from all of the results (Examples 2 to 8); for neuronal protection (trypan blue): Example 7, FIG. 7, 4 h of OGD then 24 h of reperfusion. The format is cell-based, mouse. As for the experimental part:
as §1, §2, §3
A third cell survival test in the case of the use of DX243, based on cell membrane integrity, which is ruptured in dead cells, was carried out. The latter test uses trypan blue which will stain the dead cells blue. The calculation of the percentage of live cells was consequently performed by counting the proportion of blue and non-blue cells, and related to the percentage of live cells observed in the normox group. The results obtained were reported in graph A of FIG. 4 for group A and in graph B of FIG. 4 for group B.
For all the molecules of table I other than DX243 used on group A, the third cell survival test was carried out. The results obtained were reported on the graph of FIG. 5, with the results obtained with DX243 being included therein. The sign NT means not treated. […]

Experiment [3] relates to male murine model of stroke, called Middle Cerebral Artery Occlusion (MCAO). Description: In vivo stroke test, Middle Cerebral Artery Occlusion (MCAO) followed by reperfusion. Also on record: species or system mouse. The settings on record: DX243 50 mg/Kg at reperfusion after 1 h occlusion.
The subject of experiment [4] is primary culture of cortical neurons. Description: Immunocytochemical test for neuronal survival (DAPI, CC3, TUJ1) in in vitro model of ischemia/reperfusion (OGD). The format is cell-based, mouse. How it is done:
as §1
The negative control consists of a group of neurons undergoing OGD (step 3) followed by reperfusion (step 4) without DX243 being present. This group of neurons is called “Ctrl” in FIGS. 2 to 4. […]
At the end of the reperfusion (step 4), 24 h after the OGD, the survival of the neurons is evaluated by means of three different tests: an immunocytochemical test 5, an MTT (3-(4,5-dimethylthiazol-2-yl)-2,5-diphenyltetrazolium bromide) test 6 and a test based on the cell membrane integrity via the use of trypan blue 7. […]
A first series of images is taken with chemical labelling by fluorescence. […] A second series of images is taken with labelling by fluorescence using the CC3 antibody. […]

Where [5] appears, read: observed at 24 h, vs non-treated (Ctrl) mice.
The mark [6] stands for this setting: 4 h OGD + 24 h reperfusion, DX243 treatment compared with the Ctrl group.
[7] abbreviates: Example 5, FIG. 5, group A, 100 nmol·L^−1 during 4 h OGD and 24 h reperfusion.
The mark [8] stands for this setting: concentration not printed in the sentence (100 nmol·L^−1 per Example 1).

Turning to `CC(=O)NCCCNCCCCN[C@@H]1CC2C3CC[C@H](C(C)CCCC(C)C)[C@@]3(C)CCC2[C@@]2(C)CC[C@H](O)C[C@]12O` (some centres unmarked) [DX249], in experiment [1], the “neuronal protection (MTT)” value is given as “neuroprotective effect”. Also, in experiment [2], the “overall conclusion: neuroprotective effect against cerebral ischemia” value (“overall conclusion” below) is reported as “neuroprotective effect against cerebral ischemia”.

In the case of `CC(C)CCCC(C)[C@H]1CCC2C3C[C@@H](NCCCNCCCCN)[C@@]4(O)C[C@@H](O)CC[C@]4(C)C3CC[C@@]21C` (some centres unmarked) [DX243], the “behavioral deficits (neuroscore)” value in experiment [3] (observed at 24 h, living mice, vs non-treated (Ctrl) mice) is “decrease in the behavioral deficits”. Further, in experiment [3] (setting [5]), the “percentage of dead mice” value is listed as “decrease in the percentage of dead mice” and the “size of the lesion (infarcted region, TTC staining)” value is reported as “decrease in the size of the lesion”. In addition, the “correlation between the decrease in blood flow (Laser Doppler Flowmetry) and the consequences of the stroke” value in experiment [3] (treated mice) is reported as “there does not appear to be any correlation”. For the same molecule, the “protection against decrease of metabolically active cells (survival) following OGD” value in experiment [1] (4 h OGD + 24 h reperfusion, groups A and B, vs Ctrl group) was “partially protects against this decrease in survival”. Moreover, in experiment [1], the “neuronal protection (MTT)” value was “significant neuronal protection”. Further, the “effect in group treated only during reperfusion compared with group A” value in experiment [1] (group B, DX243 only during the reperfusion for 24 h) is “all the more marked”. Moreover, in experiment [4] (4 h OGD + 24 h reperfusion, DX243 during OGD and reperfusion, or only during reperfusion, vs Ctrl group), the “protection against neuronal death” value was “partially protect against neuronal death”. Further, in experiment [4] (setting [6]), the “proportion of cells undergoing apoptosis (CC3 antibody, activated caspase 3)” value is listed as “decrease in the proportion of cells undergoing apoptosis” and the “proportion of live cells” value is on record as “increase in the proportion of live cells”. Besides, the “neuron protection, post-OGD treatment for 24 h (reperfusion only) compared with treatment during OGD and reperfusion” value in experiment [4] (group B, DX243 only during 24 h reperfusion) is “protects the neurons even more efficiently”. In experiment [2] (4 h OGD + 24 h reperfusion, groups A and B, mainly 1 to 100 nmol·L^−1), the “percentage of live cells (membrane integrity) related to normox group” value is on record as “restores the percentage of live cells to levels close to that observed in the normox group”. The “neuronal protection (trypan blue)” value in experiment [2] (1000 nM) is given as “neuroprotective effect”. Besides, the “neuronal protection (trypan blue)” value in experiment [2] (concentrations ranging from 1 to 100 nM) is listed as “significant neuronal protection”. Further, in experiment [2], the “overall conclusion” value is recorded as “neuroprotective effect against cerebral ischemia”.

In the case of `CC(C)CCCC(C)[C@H]1CCC2C3=C[C@@H](NCCCCNCCCN)[C@@]4(O)C[C@@H](O)CC[C@]4(C)C3CC[C@@]21C` (some centres unmarked) [DX244], the “neuronal protection (MTT)” value in experiment [1] is recorded as “neuroprotective effect”. The “survival rate compared with DX243” value in experiment [2] (setting [7]) was “greater than that of DX243”. Besides, the “neuronal protection (trypan blue)” value in experiment [2] (setting [8]) was “neuroprotective effect”. Also, the “overall conclusion” value in experiment [2] is given as “neuroprotective effect against cerebral ischemia”.

For the molecule `CC(C)CCCC(C)[C@H]1CCC2C3C[C@@H](NCCc4cnc[nH]4)[C@@]4(O)C[C@@H](O)CC[C@]4(C)C3CC[C@@]21C` (some centres unmarked) [DX101], the “neuronal protection (MTT)” value in experiment [1] is listed as “neuroprotective effect”. Moreover, the “overall conclusion” value in experiment [2] is reported as “neuroprotective effect against cerebral ischemia”.

Turning to `CC(C)CCCC(C)[C@H]1CCC2C3C[C@@H](NCCCNCCCCNCCCN)[C@@]4(O)C[C@@H](O)CC[C@]4(C)C3CC[C@@]21C` (some centres unmarked) [DX301], the “neuronal protection (MTT)” value in experiment [1] is “neuroprotective effect”. Also, in experiment [2], the “overall conclusion” value was “neuroprotective effect against cerebral ischemia”.

Take `CC(C)CCCC(C)[C@H]1CCC2C3=C[C@@H](NCCCNCCCCNCCCN)[C@@]4(O)C[C@@H](O)CC[C@]4(C)C3CC[C@@]21C` (some centres unmarked) [DX302]: the “neuronal protection (MTT)” value in experiment [1] is listed as “neuroprotective effect”. Also, in experiment [2], the “overall conclusion” value is given as “neuroprotective effect against cerebral ischemia”.

For the molecule `CC(C)CCCC(C)[C@H]1CCC2C3=C[C@@H](NCCCNCCCCN)[C@@]4(O)C[C@@H](O)CC[C@]4(C)C3CC[C@@]21C` (some centres unmarked) [DX242], the “neuronal protection (MTT)” value in experiment [1] is given as “neuroprotective effect”. Also, in experiment [2] (setting [7]), the “survival rate compared with DX243” value was “greater than that of DX243”. Moreover, the “neuronal protection (trypan blue)” value in experiment [2] (setting [8]) is “neuroprotective effect”. Besides, in experiment [2], the “overall conclusion” value is recorded as “neuroprotective effect against cerebral ischemia”.

With `CC(C)CCCC(C)[C@H]1CCC2C3C[C@@H](NCCCN(CCCCNC(=O)OC(C)(C)C)C(=O)OC(C)(C)C)[C@@]4(O)C[C@@H](O)CC[C@]4(C)C3CC[C@@]21C` (some centres unmarked) [DX243BOC], in experiment [2] (setting [7]), the “survival rate compared with DX243” value is on record as “lower than that of the group treated with DX243”; the “survival rate compared with NT neurons having undergone OGD and reperfusion” value was “lower than that of the group treated with DX243 and than that of the NT group having undergone OGD and reperfusion”.

`CC(C)CCCC(C)[C@H]1CCC2C3C[C@@H](NCCCCN)[C@@]4(O)C[C@@H](O)CC[C@]4(C)C3CC[C@@]21C` (some centres unmarked) [DX401]: the “neuronal protection (MTT)” value in experiment [1] is on record as “neuroprotective effect”. Also, in experiment [2], the “overall conclusion” value is reported as “neuroprotective effect against cerebral ischemia”.

Consider `CC(C)CCCC(C)[C@H]1CCC2C3C[C@@H](NCCCCNCCCN)[C@@]4(O)C[C@@H](O)CC[C@]4(C)C3CC[C@@]21C` (some centres unmarked) [DX245], for which, in experiment [1], the “neuronal protection (MTT)” value is “significant neuronal protection”. Further, in experiment [2] (setting [7]), the “survival rate compared with DX243” value is reported as “greater than that of DX243”. The “neuronal protection (trypan blue)” value in experiment [2] (10 nM) is “neuroprotective effect”; in experiment [2] (100 nM) it was “significant neuronal protection”; in experiment [2] (1000 nM), “neuroprotective effect”. For the same molecule, the “overall conclusion” value in experiment [2] is given as “neuroprotective effect against cerebral ischemia”.
